Residues, ends and D or L forms follow the SMILES beside them.
Tests used:
N2A cells = assay: Example 24: lipid peroxidation (4-HNE Michael adducts); type: cell-based; conditions: t-BHP 1 mM, 3 hours
Procedure: Lipid peroxidation will be evaluated by measuring 4-HNE Michael adducts. 4-HNE is one of the major products of the peroxidation of membrane polyunsaturated fatty acids. N2A cells will be seeded on a glass dish 1 day before t-BHP treatment (1 mM, 3 hours, 37° C., 5% CO2) alone or in the presence of peptide conjugates (10^−8 to 10^−10 M), aromatic-cationic peptides (an equivalent molar dose of aromatic-cationic peptide based on the concentration of the aromatic-cationic peptide administered in the peptide conjugate treatment group); SPN10(s) (an equivalent molar dose of SPN10 based on the concentration of SPN10 administered in the peptide conjugate treatment group); or SPN10(s) in combination with aromatic-cationic peptides (e.g., an equivalent molar dose of SPN10 based on the concentration of SPN10 administered in the peptide conjugate treatment group and an equivalent molar dose of aromatic-cationic peptide based on the concentration of aromatic-cationic peptide administered in the peptide conjugate treatment group). Cells will be washed twice with PBS, fixed 30 minutes with 4% paraformaldehyde in PBS at RT, and washed 3 additional times with PBS. […] Cells will be mounted in Vectashield and imaged using a Zeiss fluorescence microscope using an excitation wavelength of 460±20 nm and a longpass filter of 505 nm for emission.

[1] = system: anatomic zone of no-reflow; assay: No re-flow phenomenon after PCI in humans; type: in vivo, human; conditions: at the time of reperfusion
Procedure: Study group. Men and women, 18 years of age or older, who present within 6 hours after the onset of chest pain, who have ST-segment elevation of more than 0.1 mV in two contiguous leads, and for whom the clinical decision is made to treat with PCI will be eligible for enrollment. Patients will be eligible for the study whether they are undergoing primary PCI or rescue PCI. Occlusion of the affected coronary artery (Thrombolysis in Myocardial Infarction [TIMI] flow grade 0) at the time of admission will also be a criterion for inclusion. Angiography and Revascularization. Left ventricular and coronary angiography will be performed with the use of standard techniques, just before revascularization. […] No re-flow will be assessed by one or more imaging techniques. Re-flow phenomenon will be assessed using myocardial contrast echocardiography, coronary angiography, myocardial blush, coronary doppler imaging, electrocardiography, nuclear imaging single-photon emission CT, using thallium or technetium-99 m, or PET. […] Post-contrast delayed enhancement will be used on day 4±1, day 30±3 and 6+1.5 months after successful PCI and stenting to quantify infracted myocardium. This will be defined quantitatively by an intensity of the myocardial post-contrast signal that is more than 2 SD above that in a reference region of remote, non-infarcted myocardium within the same slice. […]

N=C(N)NCCC[C@H](NC(=O)[C@@H](N)Cc1c[nH]c2ccccc12)C(=O)N[C@@H](Cc1c[nH]c2ccccc12)C(=O)N[C@@H](CCCCN)C(N)=O [SPN10, H-L-Trp-L-Arg-L-Trp-L-Lys-NH2] (H-WRWK-NH2)
lipid peroxidation in cells treated with t-BHP (N2A cells): inhibit lipid peroxidation
anatomic zone of no-reflow versus placebo [1]: smaller

Source: patent US20240108740A1, “THERAPEUTIC COMPOSITIONS INCLUDING SPN10 AND USES THEREOF” (Stealth BioTherapeutics Inc., priority 2022, published 2024)
